Measured values as given in US8815918B2, “Imidazo [2, 1-B] [1, 3, 4] thiadiazole derivatives” (Centro Nacional de Investigaciones Oncologicas (CNIO), priority 2009, dated 2014).
Read-outs that look alike come from different tables or passages of the source.

Molecular target: PI3K (p110α/p85α) (Homo sapiens (Human), UniProt P42336)
Test: PI3K Activity Assay (ADP Hunter Plus)
Type: biochemical
Conditions: for inhibition at 10 µM: 10 μM compound concentration, read-out: Inhibition (%) of PI3Kα activity, Inh (%) at 10 μM
Experimental: The kinase activity was measured by using the commercial ADP Hunter™ Plus assay available from DiscoveRx (#33-016), which is a homogeneous assay to measure the accumulation of ADP, a universal product of kinase activity. The enzyme, PI3K (p110α/p85α was purchased from Carna Biosciences (#07CBS-0402A). The assay was done following the manufacturer recommendations with slight modifications: Mainly the kinase buffer was replace by 50 mM HEPES, pH 7.5, 3 mM MgCl2, 100 mM NaCl, 1 mM EGTA, 0.04% CHAPS, 2 mM TCEP and 0.01 mg/ml BGG. The PI3K was assayed in a titration experiment to determine the optimal protein concentration for the inhibition assay. To calculate the IC50 of the ETP-compounds, serial 1:5 dilutions of the compounds were added to the enzyme at a fixed concentration (2.5 μg/mL. The enzyme was preincubated with the inhibitor and 30 μM PIP2 substrate (P9763, Sigma) for 5 min and then ATP was added to a final 50 μM concentration. Reaction was carried out for 1 hour at 25° C. Reagent A and B were sequentially added to the wells and plates were incubated for 30 min at 37° C. Fluorescence counts were read in a Victor instrument (Perkin Elmer) with the recommended settings (544 and 580 nm as excitation and emission wavelengths, respectively). Values were normalized against the control activity included for each enzyme (i.e., 100% PI3 kinase activity, without compound). These values were plot against the inhibitor concentration and were fit to a sigmoid dose-response curve by using the Graphad software.

[1] = read-out: Biological activity in PI3Kα, semi-quantitative

Chain of PI3K (p110α/p85α) (P42336 whole entry): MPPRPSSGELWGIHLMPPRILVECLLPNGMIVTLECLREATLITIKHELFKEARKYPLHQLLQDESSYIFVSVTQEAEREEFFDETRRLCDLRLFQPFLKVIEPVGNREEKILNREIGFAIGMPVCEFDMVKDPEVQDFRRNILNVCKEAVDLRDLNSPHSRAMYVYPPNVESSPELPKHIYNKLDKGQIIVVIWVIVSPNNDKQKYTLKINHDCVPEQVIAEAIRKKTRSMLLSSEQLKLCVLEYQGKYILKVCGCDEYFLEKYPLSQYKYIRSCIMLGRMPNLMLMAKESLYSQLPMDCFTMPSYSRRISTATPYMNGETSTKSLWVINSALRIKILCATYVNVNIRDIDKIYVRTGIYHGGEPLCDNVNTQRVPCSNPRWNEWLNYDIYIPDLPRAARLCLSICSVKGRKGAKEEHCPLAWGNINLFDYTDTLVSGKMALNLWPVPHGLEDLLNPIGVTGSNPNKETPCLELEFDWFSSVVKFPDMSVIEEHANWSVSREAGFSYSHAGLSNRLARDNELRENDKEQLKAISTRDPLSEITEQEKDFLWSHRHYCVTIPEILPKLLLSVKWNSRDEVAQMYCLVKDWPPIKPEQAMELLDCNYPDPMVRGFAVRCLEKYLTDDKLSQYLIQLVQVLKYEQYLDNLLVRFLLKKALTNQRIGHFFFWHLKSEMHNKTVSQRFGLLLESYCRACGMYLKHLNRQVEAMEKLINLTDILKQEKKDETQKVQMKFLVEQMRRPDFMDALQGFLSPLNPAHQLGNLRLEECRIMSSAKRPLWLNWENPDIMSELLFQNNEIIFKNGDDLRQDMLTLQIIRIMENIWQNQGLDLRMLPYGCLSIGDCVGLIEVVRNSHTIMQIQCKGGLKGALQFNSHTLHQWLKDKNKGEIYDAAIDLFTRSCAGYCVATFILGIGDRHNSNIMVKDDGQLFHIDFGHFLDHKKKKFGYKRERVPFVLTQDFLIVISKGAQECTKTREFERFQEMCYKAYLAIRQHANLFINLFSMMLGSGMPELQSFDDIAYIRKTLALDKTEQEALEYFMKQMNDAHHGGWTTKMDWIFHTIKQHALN
Chain of PI3K (p110α/p85α) (P27986 whole entry partner): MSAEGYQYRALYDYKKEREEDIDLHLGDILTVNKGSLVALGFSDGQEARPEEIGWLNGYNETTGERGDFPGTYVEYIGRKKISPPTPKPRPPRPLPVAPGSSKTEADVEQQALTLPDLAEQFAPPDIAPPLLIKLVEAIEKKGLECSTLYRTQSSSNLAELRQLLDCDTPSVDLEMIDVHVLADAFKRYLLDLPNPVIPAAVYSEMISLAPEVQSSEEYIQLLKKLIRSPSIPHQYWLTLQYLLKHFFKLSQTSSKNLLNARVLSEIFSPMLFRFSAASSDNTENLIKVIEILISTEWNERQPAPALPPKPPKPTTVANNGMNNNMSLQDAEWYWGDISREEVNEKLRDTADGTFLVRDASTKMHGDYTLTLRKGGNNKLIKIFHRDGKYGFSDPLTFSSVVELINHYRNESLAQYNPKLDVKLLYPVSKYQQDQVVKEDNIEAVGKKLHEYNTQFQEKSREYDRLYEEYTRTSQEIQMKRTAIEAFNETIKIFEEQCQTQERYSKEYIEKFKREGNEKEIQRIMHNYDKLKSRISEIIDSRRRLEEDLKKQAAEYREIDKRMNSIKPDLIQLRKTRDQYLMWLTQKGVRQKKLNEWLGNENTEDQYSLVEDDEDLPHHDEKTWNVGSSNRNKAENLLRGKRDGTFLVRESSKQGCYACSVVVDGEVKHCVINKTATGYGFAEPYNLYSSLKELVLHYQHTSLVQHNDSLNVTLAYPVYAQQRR

| Compound | inhibition at 10 µM | IC50 [1] | IC50 (read-out: IC50 [μM] PI3Kα) |
| --- | --- | --- | --- |
| COc1ccc(-c2nn3c(-c4ccc(C#N)nc4)c(C)nc3s2)cc1OC [Example 2, 5-[2-(3,4-Dimethoxy-phenyl)-6-methyl-imidazo[2,1-b][1,3,4]thiadiazol-5-yl]-pyridine-2-carbonitrile] | 100% | 0.1 to 1 µM |  |
| COc1ccc(-c2c(C)nc3sc(-c4ccc(OC)c(OC)c4)nn23)cn1 [Example 5, 2-(3,4-Dimethoxy-phenyl)-5-(6-methoxy-pyridin-3-yl)-6-methyl-imidazo[2,1-b][1,3,4]thiadiazole] | 70% | 1 to 50 µM | 2.88 µM |
| COc1ccc(-c2nn3c(-c4cnc(N)nc4)c(C)nc3s2)cc1OC [Example 7, 5-[2-(3,4-Dimethoxy-phenyl)-6-methyl-imidazo[2,1-b][1,3,4]thiadiazol-5-yl]-pyrimidin-2-ylamine] | 100% | 0.1 to 1 µM |  |
| COc1ccc(-c2nn3c(-c4ccc(O)nc4)c(C)nc3s2)cc1OC [Example 8, 5-[2-(3,4-Dimethoxy-phenyl)-6-methyl-imidazo[2,1-b][1,3,4]thiadiazol-5-yl]-pyridin-2-ol] |  | 1 to 50 µM |  |
| COc1cc(-c2nn3c(-c4cnc(N)c(C(F)(F)F)c4)c(C)nc3s2)ccc1OCCNC(=O)OC(C)(C)C [Example 9, tert-Butyl 2-(4-(5-(6-amino-5-(trifluoromethyl)pyridin-3-yl)-6-methylimidazo-[2,1-b][1,3,4]thiadiazol-2-yl)-2-methoxyphenoxy)ethylcarbamate] | 77% | 1 to 50 µM |  |
| COc1cc(-c2nn3c(-c4cnc(N)c(C(F)(F)F)c4)c(C)nc3s2)ccc1OCC(=O)N(C)C [Example 10, 2-(4-(5-(6-amino-5-(trifluoromethyl)pyridin-3-yl)-6-methylimidazo[2,1-b][1,3,4]thiadiazol-2-yl)-2-methoxyphenoxy)-N,N-dimethylacetamide] |  | 1 to 50 µM |  |
| COc1cc(-c2nn3c(-c4cnc(N)c(C(F)(F)F)c4)c(C)nc3s2)ccc1OCCN1CCOCC1 [Example 11, 5-(2-(4-(2-morpholinoethoxy)-3-methoxyphenyl)-6-methylimidazo[2,1-b][1,3,4]thiadiazol-5-yl)-3-(trifluoromethyl)pyridin-2-amine] | 83% | 1 to 50 µM |  |
| COc1cc(-c2nn3c(-c4cnc(N)c(C(F)(F)F)c4)cnc3s2)ccc1OC1CCNCC1 [Example 12, 5-{2-[3-Methoxy-4-(piperidin-4-yloxy)-phenyl]-imidazo[2,1-b][1,3,4]thiadiazol-5-yl}-3-trifluoromethyl-pyridin-2-ylamine] |  | < 0.1 µM |  |
| COc1ccc(-c2cnc3sc(-c4ccc(OC5CCNCC5)c(OC)c4)nn23)cn1 [Example 13, 2-[3-Methoxy-4-(piperidin-4-yloxy)-phenyl]-5-(6-methoxy-pyridin-3-yl)-imidazo[2,1-b][1,3,4]thiadiazole] |  | 1 to 50 µM |  |
| COc1cc(-c2nn3c(-c4cnc(N)nc4)cnc3s2)ccc1OC1CCN(C(=O)OC(C)(C)C)CC1 [Example 14, 4-{4-[5-(2-Amino-pyrimidin-5-yl)-imidazo[2,1-b][1,3,4]thiadiazol-2-yl]-2-methoxy-phenoxy}-piperidine-1-carboxylic acid tert-butyl ester] |  | 1 to 50 µM |  |
| COc1cc(-c2nn3c(-c4cnc(N)nc4)cnc3s2)ccc1OC1CCNCC1 [Example 15, 5-{2-[3-Methoxy-4-(piperidin-4-yloxy)-phenyl]-imidazo[2,1-b][1,3,4]thiadiazol-5-yl}-pyrimidin-2-ylamine] |  | 0.1 to 1 µM | 0.115 µM |
| COc1ccc(-c2nn3c(-c4ccc(OC)c(OC)c4)cnc3s2)cc1OC [Example 16, 2,5-Bis-(3,4-dimethoxy-phenyl)-imidazo[2,1-b][1,3,4]thiadiazole] | 97% | < 0.1 µM |  |
| COc1ccc(-c2nn3c(-c4ccc(C#N)nc4)cnc3s2)cc1OC [Example 17, 5-[2-(3,4-Dimethoxy-phenyl)-imidazo[2,1-b][1,3,4]thiadiazol-5-yl]-pyridine-2-carbonitrile] | 95% | < 0.1 µM | 0.063 µM |
| COc1ccc(-c2nn3c(-c4cnc(N)c(C#N)c4)cnc3s2)cc1OC [Example 18, 2-Amino-5-[2-(3,4-dimethoxy-phenyl)-imidazo[2,1-b][1,3,4]thiadiazol-5-yl]-nicotinonitrile] |  | < 0.1 µM | 0.033 µM |
| COc1ccc(-c2nn3c(-c4cnc(N5CCN(C(=O)OC(C)(C)C)CC5)nc4)cnc3s2)cc1OC [Example 19, 4-{5-[2-(3,4-Dimethoxy-phenyl)-imidazo[2,1-b][1,3,4]thiadiazol-5-yl]-pyrimidin-2-yl}-piperazine-1-carboxylic acid tert-butyl ester] |  | 1 to 50 µM |  |
| COc1ccc(-c2nn3c(-c4cnc(N5CCNCC5)nc4)cnc3s2)cc1OC [Example 20, 2-(3,4-Dimethoxy-phenyl)-5-(2-piperazin-1-yl-pyrimidin-5-yl)-imidazo[2,1-b][1,3,4]thiadiazole] |  | 0.1 to 1 µM |  |
| COc1ccc(-c2nn3c(-c4cnc(N5CCN(C)CC5)c(C(F)(F)F)c4)cnc3s2)cc1OC [Example 23, 2-(3,4-Dimethoxy-phenyl)-5-[6-(4-methyl-piperazin-1-yl)-5-trifluoromethyl-pyridin-3-yl]-imidazo[2,1-b][1,3,4]thiadiazole] |  | 0.1 to 1 µM | 0.447 µM |
| COc1cncc(-c2cnc3sc(-c4ccc(OC)c(OC)c4)nn23)c1 [Example 27, 2-(3,4-dimethoxyphenyl)-5-(5-methoxypyridin-3-yl)imidazo[2,1-b][1,3,4]thiadiazole] | 99% | < 0.1 µM |  |
| COc1cccc(-c2nn3c(-c4cnc(N)c(C(F)(F)F)c4)cnc3s2)c1 [Example 28, 5-[2-(3-Methoxy-phenyl)-imidazo[2,1-b][1,3,4]thiadiazol-5-yl]-3-trifluoromethyl-pyridin-2-ylamine] |  | 0.1 to 1 µM |  |
| COc1ccc(-c2nn3c(-c4cnc(N)c(C(F)(F)F)c4)cnc3s2)cc1 [Example 30, 5-[2-(4-Methoxy-phenyl)-imidazo[2,1-b][1,3,4]thiadiazol-5-yl]-3-trifluoromethyl-pyridin-2-ylamine] |  | 0.1 to 1 µM | 0.454 µM |

More lines, now with the values ahead:

| inhibition at 10 µM | IC50 [1] | IC50 (read-out: IC50 [μM] PI3Kα) | Compound |
| --- | --- | --- | --- |
| 68% | 0.1 to 1 µM |  | COc1ccc(-c2nn3c(-c4ccc(S(C)(=O)=O)c(F)c4)c(C)nc3s2)cc1OC [Example 1, 2-(3,4-Dimethoxy-phenyl)-5-(3-fluoro-4-methanesulfonyl-phenyl) -6-methyl-imidazo[2,1-b][1,3,4]thiadiazole] |
| 97% | < 0.1 µM |  | COc1ccc(-c2nn3c(-c4cnc(N)c(C(F)(F)F)c4)c(C)nc3s2)cc1OC [Example 3, 5-[2-(3,4-Dimethoxy-phenyl)-6-methyl-imidazo[2,1-b][1,3,4]thiadiazol-5-yl]-3-trifluoromethyl-pyridin-2-ylamine] |
| 81% | 1 to 50 µM |  | COc1ccc(-c2nn3c(-c4cccnc4)c(C)nc3s2)cc1OC [Example 4, 2-(3,4-Dimethoxy-phenyl)-6-methyl-5-pyridin-3-yl-imidazo[2,1-b][1,3,4]thiadiazole] |
| 85% | 0.1 to 1 µM |  | COc1ccc(-c2nn3c(-c4ccc(OC)c(OC)c4)c(C)nc3s2)cc1OC [Example 6, 2,5-Bis-(3,4-dimethoxy-phenyl)-6-methyl-imidazo[2,1-b][1,3,4]thiadiazole] |
|  | 0.1 to 1 µM |  | COc1ccc(-c2nn3c(-c4cnc(N5CCN(C)CC5)nc4)cnc3s2)cc1OC [Example 21, 2-(3,4-Dimethoxy-phenyl)-5-[2-(4-methyl-piperazin-1-yl)-pyrimidin-5-yl]-imidazo[2,1-b][1,3,4]thiadiazole] |
|  | 0.1 to 1 µM |  | COc1ccc(-c2nn3c(-c4cnc(N5CCNCC5)c(C(F)(F)F)c4)cnc3s2)cc1OC [Example 22, 2-(3,4-Dimethoxy-phenyl)-5-(6-piperazin-1-yl-5-trifluoromethyl-pyridin-3-yl)-imidazo[2,1-b][1,3,4]thiadiazole] |
|  | 0.1 to 1 µM |  | COc1ccc(-c2nn3c(-c4cnc(SC)nc4)cnc3s2)cc1OC [Example 24, 2-(3,4-Dimethoxy-phenyl)-5-(2-methylsulfanyl-pyrimidin-5-yl)-imidazo[2,1-b][1,3,4]thiadiazole] |
|  | 0.1 to 1 µM |  | COc1ccc(-c2nn3c(-c4cnc([S+](C)[O-])nc4)cnc3s2)cc1OC (stereo not drawn) [Example 25, 2-(3,4-Dimethoxy-phenyl)-5-(2-mthanesulfinyl-pyrimidin-5-yl) -imidazo[2,1-b][1,3,4]thiadiazole] |
|  | 0.1 to 1 µM |  | COc1ccc(-c2nn3c(-c4cnc(NCCN(C)C)nc4)cnc3s2)cc1OC [Example 26, N′-{5-[2-(3,4-Dimethoxy-phenyl)-imidazo[2,1-b][1,3,4]thiadiazol-5-yl]-pyrimidin-2-yl}-N,N-dimethyl-ethane-1,2-diamine] |
|  | < 0.1 µM |  | N#Cc1cccc(-c2nn3c(-c4cnc(N)c(C(F)(F)F)c4)cnc3s2)c1 [Example 29, 3-[5-(6-Amino-5-trifluoromethyl-pyridin-3-yl)-imidazo[2,1-b][1,3,4]thiadiazol-2-yl]-benzonitrile] |
